Measured values reported in patent US4260682A, “High sensitivity assays for angiotensin converting enzyme” (priority 1979, dated 1981).
Peptide text beside a SMILES is read from it. * marks the point of attachment. Bz = O=C(c1ccccc1)*

Key:
Guinea pig urinary ACE = target: T1, Guinea pig urinary ACE (Cavia porcellus, UniProt H0UWL7); assay: Sulfate and chloride effects on ACE catalysed substrate hydrolysis; type: biochemical; conditions: 0.05M Hepes
T1 sequence (H0UWL7 33-1302): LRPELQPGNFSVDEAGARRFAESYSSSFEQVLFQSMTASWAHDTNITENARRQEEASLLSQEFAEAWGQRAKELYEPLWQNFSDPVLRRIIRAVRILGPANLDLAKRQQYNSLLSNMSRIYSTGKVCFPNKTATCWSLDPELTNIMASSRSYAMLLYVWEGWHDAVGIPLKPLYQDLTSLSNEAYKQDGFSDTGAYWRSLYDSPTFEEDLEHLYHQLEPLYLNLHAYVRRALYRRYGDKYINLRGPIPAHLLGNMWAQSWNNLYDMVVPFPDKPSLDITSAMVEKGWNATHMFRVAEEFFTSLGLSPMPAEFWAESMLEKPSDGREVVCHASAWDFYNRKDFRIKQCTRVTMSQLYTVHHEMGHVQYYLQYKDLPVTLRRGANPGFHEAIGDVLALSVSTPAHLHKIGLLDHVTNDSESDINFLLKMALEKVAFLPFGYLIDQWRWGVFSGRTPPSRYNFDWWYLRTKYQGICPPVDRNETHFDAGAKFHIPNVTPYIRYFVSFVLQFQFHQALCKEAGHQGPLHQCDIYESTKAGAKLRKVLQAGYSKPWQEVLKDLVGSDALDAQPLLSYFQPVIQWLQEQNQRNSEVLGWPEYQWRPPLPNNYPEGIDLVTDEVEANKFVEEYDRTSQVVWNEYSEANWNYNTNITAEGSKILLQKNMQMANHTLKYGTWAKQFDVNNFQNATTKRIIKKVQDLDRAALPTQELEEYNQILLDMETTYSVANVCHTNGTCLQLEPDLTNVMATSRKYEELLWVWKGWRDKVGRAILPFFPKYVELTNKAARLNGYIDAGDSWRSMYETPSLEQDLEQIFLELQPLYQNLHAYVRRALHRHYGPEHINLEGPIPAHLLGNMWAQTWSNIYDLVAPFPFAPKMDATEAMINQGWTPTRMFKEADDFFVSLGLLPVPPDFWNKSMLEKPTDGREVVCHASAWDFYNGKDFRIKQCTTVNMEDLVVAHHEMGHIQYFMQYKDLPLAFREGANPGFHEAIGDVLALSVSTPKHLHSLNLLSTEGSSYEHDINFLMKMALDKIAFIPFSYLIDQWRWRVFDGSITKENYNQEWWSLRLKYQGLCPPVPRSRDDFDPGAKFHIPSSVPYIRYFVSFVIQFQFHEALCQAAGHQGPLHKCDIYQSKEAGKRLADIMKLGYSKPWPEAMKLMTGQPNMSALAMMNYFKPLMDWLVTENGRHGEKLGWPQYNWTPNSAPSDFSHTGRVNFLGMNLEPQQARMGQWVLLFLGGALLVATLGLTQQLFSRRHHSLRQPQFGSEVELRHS

ACE [1] = assay: pH dependence of ACE activity; type: biochemical
Excerpt: (§1) The enzyme is active over a broad pH range with a maximum around pH 8.0, but is at least about 50% active in the range pH 7.0-pH 8.8, for both HipHisLeu and benzoylPheAlaPro. Although the enzyme is active in a variety of buffer systems known in the art, it is preferred for convenience, when using benzoylPheAlaPro as substrate, to conduct the assays in 0.05 M Hepes buffer, pH 8.0 containing 0.15 M sodium chloride. Detailed protocols for carrying out the assay are given in the examples. […] The preferred concentration range is 1×10^-9 M to 7×10^- 5 M.

ACE from rabbit lung = conditions: sodium chloride removed from reaction medium; cited from earlier work
ACE [2] = assay: Sulfate and chloride effects on ACE catalysed hydrolysis (general description); type: biochemical; conditions: sulfate present
Excerpt: An assay for ACE, using HipHisLeu as substrate, is herewith described. The assay is more sensitive than any heretofore disclosed using HipHisLeu as substrate. Maximum sensitivity is achieved by the inclusion of sulfate ions, preferably as sodium sulfate, in the reaction mixture. When 0.1 M NaCl is present in the reaction mixture, sulfate ions are stimulatory from 0.1 M to at least 1.1 M. Maximum stimulation occurs in the range from 0.75 M to 1.1 M Na2 SO4.
An even more sensitive assay for ACE activity has been developed using the novel compound ^3 H-benzoylPheAlaPro as substrate. This new substrate can be used to assay ACE in human urine in incubations as short as 15 minutes. The response of this substrate to ions is strikingly different from the response of HipHisLeu. […] This difficulty has been solved by the proper choice of extracting solvent. While a variety of organic solvents may be suitable for the extraction step, it is preferred to employ toluene. Approximately 88% of ^3 H-benzoylPhe enters the toluene phase while only 6% of the unhydrolyzed substrate enters the toluene phase, when toluene and the acidified reaction mixture are in approximately equal volumes at room temperatures.
as §1

CC(C)C[C@H](NC(=O)[C@H](Cc1c[nH]cn1)NC(=O)CNC(=O)c1ccccc1)C(=O)O [HipHisLeu] (Bz-Gly-His-Leu-OH)
Reaction Velocity, Per Cent of Substrate Hydrolyzed in 10 minutes (Guinea pig urinary ACE; pH 8.0, 0.0M NaCl, Na2 SO4 0 M): 0 Per Cent
Reaction Velocity, Per Cent of Substrate Hydrolyzed in 10 minutes (Guinea pig urinary ACE; pH 8.0, 0.0M NaCl, Na2 SO4 0.1 M): 0 Per Cent
Reaction Velocity, Per Cent of Substrate Hydrolyzed in 10 minutes (Guinea pig urinary ACE; pH 8.0, 0.0M NaCl, Na2 SO4 0.2 M): 0 Per Cent
Reaction Velocity, Per Cent of Substrate Hydrolyzed in 10 minutes (Guinea pig urinary ACE; pH 8.0, 0.0M NaCl, Na2 SO4 0.3 M): 0 Per Cent
Reaction Velocity, Per Cent of Substrate Hydrolyzed in 10 minutes (Guinea pig urinary ACE; pH 8.0, 0.0M NaCl, Na2 SO4 0.4 M): 0.1 Per Cent
Reaction Velocity, Per Cent of Substrate Hydrolyzed in 10 minutes (Guinea pig urinary ACE; pH 8.0, 0.0M NaCl, Na2 SO4 0.5 M): 0.1 Per Cent
Reaction Velocity, Per Cent of Substrate Hydrolyzed in 10 minutes (Guinea pig urinary ACE; pH 8.0, 0.0M NaCl, Na2 SO4 0.6 M): 0.25 Per Cent
Reaction Velocity, Per Cent of Substrate Hydrolyzed in 10 minutes (Guinea pig urinary ACE; pH 8.0, 0.0M NaCl, Na2 SO4 0.7 M): 0.25 Per Cent
Reaction Velocity, Per Cent of Substrate Hydrolyzed in 10 minutes (Guinea pig urinary ACE; pH 8.0, 0.0M NaCl, Na2 SO4 0.75 M): 0.25 Per Cent
Reaction Velocity, Per Cent of Substrate Hydrolyzed in 10 minutes (Guinea pig urinary ACE; pH 8.0, 0.0M NaCl, Na2 SO4 0.8 M): 0.25 Per Cent
Reaction Velocity, Per Cent of Substrate Hydrolyzed in 10 minutes (Guinea pig urinary ACE; pH 8.0, 0.0M NaCl, Na2 SO4 0.9 M): 0.7 Per Cent
Reaction Velocity, Per Cent of Substrate Hydrolyzed in 10 minutes (Guinea pig urinary ACE; pH 8.0, 0.0M NaCl, Na2 SO4 1.2 M): 3.9 Per Cent
Reaction Velocity, Per Cent of Substrate Hydrolyzed in 10 minutes (Guinea pig urinary ACE; pH 8.0, 0.1M NaCl, Na2 SO4 0 M): 0.3 Per Cent
Reaction Velocity, Per Cent of Substrate Hydrolyzed in 10 minutes (Guinea pig urinary ACE; pH 8.0, 0.1M NaCl, Na2 SO4 0.4 M): 4.1 Per Cent
Reaction Velocity, Per Cent of Substrate Hydrolyzed in 10 minutes (Guinea pig urinary ACE; pH 8.0, 0.1M NaCl, Na2 SO4 0.6 M): 8.3 Per Cent
Reaction Velocity, Per Cent of Substrate Hydrolyzed in 10 minutes (Guinea pig urinary ACE; pH 8.0, 0.1M NaCl, Na2 SO4 0.75 M): 12.05 Per Cent
Reaction Velocity, Per Cent of Substrate Hydrolyzed in 10 minutes (Guinea pig urinary ACE; pH 8.0, 0.1M NaCl, Na2 SO4 0.9 M): 12.25 Per Cent
pH of maximum activity (ACE [1]): ~8.0 pH
activity of enzyme (relative to maximum) (ACE [1]; range pH 7.0-pH 8.8): at least 50%
inhibition on removal of sodium chloride (ACE from rabbit lung): 92%
dependence of hydrolysis on added chloride (ACE [2]): can be carried out in the absence of added chloride, if sulfate is present
